Results as given in patent US7432095B2, “Formate dehydrogenase tolerant to halogen compounds and process for producing the same” (Kaneka Corporation, priority 2001, dated 2008).
Where two headings read alike, the source gives them in different places.

Experiments:
[1] = system: KNK65MA FDH (formate dehydrogenase); test: Haloketone tolerance: residual FDH activity of cell-free extract after standing with haloketone; format: biochemical, Thiobacillus sp. KNK65MA; conditions: 30° C.
[2] = system: FDH derived from the KNK607 strain; test: as above; format: biochemical; conditions: 30° C.
Candida boidinii FDH = biological target: T1, Candida boidinii FDH (Candida boidinii, UniProt O13437); test: biochemical
T1 sequence (O13437 1-364): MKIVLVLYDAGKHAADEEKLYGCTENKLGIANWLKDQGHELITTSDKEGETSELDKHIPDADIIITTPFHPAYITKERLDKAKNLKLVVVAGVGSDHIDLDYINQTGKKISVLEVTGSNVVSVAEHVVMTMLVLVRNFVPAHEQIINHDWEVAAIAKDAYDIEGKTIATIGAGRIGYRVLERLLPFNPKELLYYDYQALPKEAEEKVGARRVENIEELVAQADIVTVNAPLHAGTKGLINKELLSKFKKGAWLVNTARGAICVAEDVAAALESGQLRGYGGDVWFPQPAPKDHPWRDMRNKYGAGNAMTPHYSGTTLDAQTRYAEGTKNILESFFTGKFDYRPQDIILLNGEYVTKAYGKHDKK

[3] = Formate dehydrogenase activity assay (NADH formation, absorbance at 340 nm) of the purified enzyme; format: biochemical, Thiobacillus sp. KNK65MA; conditions: for Specific activity: 0.1 M phosphate buffer pH 7, 500 mM sodium formate, 5 mM NAD
Protocol: In the present invention, the formate dehydrogenase activity of the polypeptide is assayed by quantitating the increase in absorbance at 340 nm resulting from the production of NADH at 30° C. or 40° C. in a 0.1 M phosphate buffer (pH 7) containing 500 mM sodium formate and 5 mM NAD.
The molecular weight determination is by gel permeation chromatography. The Km value for formate is determined by measuring the activity under the above conditions of activity assay (30° C., NAD 5 mM) while the concentration of sodium formate is varied, and the Km value for NAD is determined under the above conditions of activity assay (30° C., sodium formate 500 mM) while the concentration of NAD is varied. […]
The activity of the formate dehydrogenase obtained was assayed by quantitating the increase in absorbance at 340 nm resulting from formation of NADH in 0.1 M phosphate buffer (pH 7) containing 500 mM sodium formate and 5 mM NAD at 30° C. or 40° C. In this connection, the amount of the enzyme yielding […] of NADH in 1 minute was defined as 1 unit. Protein assay was performed by the method of Lowry using BSA as standard protein. The specific activity of the purified formate dehydrogenase was 7.6 u/mg protein (30° C.) or 13.3 μ/mg protein (40° C.)
The Km values for formate and NAD were determined as follows. Thus, the Km value for formate was determined by measuring the activity with the concentration of sodium formate varied under the above specific activity assay conditions (30° C., NAD 5 mM) and the Km value for NAD was determined by measuring the activity with the concentration of NAD varied under the above specific activity assay conditions (30° C., sodium formate 500 mM). In FIG. 3 and FIG. 4, V represents the reaction velocity of the enzyme, S represents the concentration of the substrate, and the intercept of the abscissa represents −1/Km. […]

[4] = system: ethyl 4-chloroacetoacetate reduction system (NAD regeneration); test: Coenzyme regeneration in the enzymatic reduction system of ethyl 4-chloroacetoacetate; format: biochemical; conditions: 6 g ethyl 4-chloroacetoacetate in 60 ml, butyl acetate/water, pH 6.5, 30° C., 3.5 hours, reductase from HB101 (pNTS1M1)
Protocol: Escherichia coli HB101 (pFT002) expressing the KNK65MA-derived FDH as acquired in Example 7 and Escherichia coli HB101 (pFA002) expressing KNK607-derived FDH (WO 02/46427) were respectively inoculated into 60 ml of the liquid medium shown in Table 5 sterilized in a 500 ml Sakaguchi flask and shake-cultured at 37° C. for 9 hours. The resulting culture medium was inoculated into 100 ml of the liquid medium shown in Table 5 sterilized in a 500 ml Sakaguchi flask in size of 1% and shake-cultured at 37° C. for 46 hours. The resulting culture medium was centrifugally concentrated 5-fold and sonicated to give an FDH enzyme solution. On the other hand, for use as the reductase enzyme for reducing a 4-haloacetoacetate, the recombinant Escherichia coli HB101 (pNTS1M1)(FERM BP-8059) was inoculated into 100 ml of the medium shown in Table 5 sterilized in a 500 ml Sakaguchi flask, shake-cultured at 37° C. for 23 hours, and concentrated 10-fold and the cells were disrupted. […] After completion of the reaction, the reaction mixture was extracted with butyl acetate and the extract was analyzed. […]
The quantitation of ethyl 4-chloro-3-hydroxybutyrate was carried out by gas chromatography. […]

[5] = […], haloketone 20 mM added 1:1, 28.5 hours, […]
[6] = […], haloketone 20 mM added 1:1, 5 hours, […]
[7] = […], haloketone 20 mM added 1:1, 30° C., 5 hours, […], read-out: Residual FDH activity (%)
[8] = KNK65MA FDH extract, haloketone 20 mM added 1:1, 5 hours, untreated extract = 100%
[9] = KNK607 FDH extract, haloketone 20 mM added 1:1, 5 hours, untreated extract = 100%
[10] = Candida boidinii FDH extract, haloketone 20 mM added 1:1, 30° C., 5 hours, untreated extract = 100%, read-out: Residual FDH activity (%)

## CC(C)(C)OC(=O)N[C@@H](Cc1ccccc1)C(=O)CCl [1,1-dimethylethyl [(1S)-3-chloro-2-oxo-1-(phenylmethyl)propyl]carbamate]
[1]; KNK65MA FDH extract, haloketone 2 mM added 1:1, 5 hours, untreated extract = 100%
  Residual FDH activity (%): 100.0%
[2]; KNK607 FDH extract, haloketone 2 mM added 1:1, 5 hours, untreated extract = 100%
  Residual FDH activity (%): 81.6%
Candida boidinii FDH; Candida boidinii FDH extract, haloketone 2 mM added 1:1, 30° C., 5 hours, untreated extract = 100%, read-out: Residual FDH activity (%)
  remaining activity at 2000 µM: 31.3%

## O=C(CCl)c1ccccc1 [2-Chloroacetophenone, 2-chloroacetophenone]
[1]; [5]
  Residual FDH activity (%): 100.7%
[2]; [5]
  Residual FDH activity (%): 100.0%
Candida boidinii FDH; 28.5 h, read-out: Residual FDH activity (%)
  remaining activity at 20000 µM: 29.4%

## CCOC(=O)C(Cl)C(C)=O (centres unmarked) [Ethyl2-chloroacetoacetate, ethyl 2-chloroacetoacetate]
[1]; [6]
  Residual FDH activity (%): 100.0%
[2]; [6]
  Residual FDH activity (%): 2.5%
Candida boidinii FDH; [7]
  remaining activity at 20000 µM: 5.4%

## CCOC(=O)CC(=O)CI [Ethyl4-iodoacetoacetate, ethyl 4-iodoacetoacetate]
[1]; [8]
  Residual FDH activity (%): 12.1%
[2]; [9]
  Residual FDH activity (%): 0.0%
Candida boidinii FDH; [10]
  remaining activity at 20000 µM: 0%

## O=C(CCl)COC(=O)c1ccccc1 [1-(Benzoyloxy)-3-chloro-2-propanone, 1-(benzoyloxy)-3-chloro-2-propanone]
[1]; KNK65MA FDH extract, haloketone 10 mM added 1:1, 5 hours, untreated extract = 100%
  Residual FDH activity (%): 100.7%
[2]; KNK607 FDH extract, haloketone 10 mM added 1:1, 5 hours, untreated extract = 100%
  Residual FDH activity (%): 1.6%
Candida boidinii FDH; Candida boidinii FDH extract, haloketone 10 mM added 1:1, 30° C., 5 hours, untreated extract = 100%, read-out: Residual FDH activity (%)
  remaining activity at 10000 µM: 4.5%

## O=C(CCl)c1cccc(Cl)c1 [2,3′-Dichloroacetophenone, 2,3′-dichloroacetophenone]
[1]; [6]
  Residual FDH activity (%): 97.9%
[2]; [6]
  Residual FDH activity (%): 27.0%
Candida boidinii FDH; [7]
  remaining activity at 20000 µM: 7.4%

## O=C(CCl)c1cccnc1 [2-Chloro-1-(3-pyridinyl)ethanone, 2-chloro-1-(3-pyridinyl)ethanone]
[1]; [6]
  Residual FDH activity (%): 90.1%
[2]; [6]
  Residual FDH activity (%): 6.1%
Candida boidinii FDH; [7]
  remaining activity at 20000 µM: 1.5%

## COC(=O)CC(=O)CCl [Methyl4-chloroacetoacetate, methyl 4-chloroacetoacetate]
[1]; [6]
  Residual FDH activity (%): 100.0%
[2]; [6]
  Residual FDH activity (%): 13.1%
Candida boidinii FDH; [7]
  remaining activity at 20000 µM: 14.9%

## O=C(CO)CCl [1-Chloro-3-hydroxy-2-propanone, 1-chloro-3-hydroxy-2-propanone]
[1]; [8]
  Residual FDH activity (%): 80.1%
[2]; [9]
  Residual FDH activity (%): 11.7%
Candida boidinii FDH; [10]
  remaining activity at 20000 µM: 14.7%

## CCOC(=O)CC(=O)CCl [Ethyl4-chloroacetoacetate, ethyl 4-chloroacetoacetate]
[1]; [6]
  Residual FDH activity (%): 100.7%
[2]; [6]
  Residual FDH activity (%): 20.1%
Candida boidinii FDH; [7]
  remaining activity at 20000 µM: 14.3%

## chloroacetone
[1]; 5 hours
  Residual FDH activity (%): 100.0%
[2]; 5 hours
  Residual FDH activity (%): 46.2%
Candida boidinii FDH; 30° C., 5 hours
  Residual FDH activity (%): 38.2%

## CCOC(=O)CC(=O)CBr [Ethyl4-bromoacetoacetate, ethyl 4-bromoacetoacetate]
[1]; [8]
  Residual FDH activity (%): 24.1%
[2]; [9]
  Residual FDH activity (%): 0.0%
Candida boidinii FDH; [10]
  remaining activity at 20000 µM: 0%

B1: FDH derived from KNK65MA: Haloketone-tolerant NAD-dependent formate dehydrogenase from Thiobacillus sp. KNK65MA, amino acid sequence SEQ ID NO:1 (protein, listed as Thiobacillus sp.)
chain: MAKILCVLYDDPVDGYPKTYARDDLPKIDHYPGGQTLPTPKAIDFTPGQLLGSVSGELGLRKYLEANGHTFVVTSDKDGPDSVFEKELVDADVVISQPFWPAYLTPERIAKAKNLKLALTAGIGSDHVDLQSAIDRGITVAEVTYCNSISVAEHVVMMILGLVRNYIPSHDWARKGGWNIADCVEHSYDLEGMTVGSVAAGRIGLAVLRRLAPFDVKLHYTDRHRLPEAVEKELGLVWHDTREDMYPHCDVVTLNVPLHPETEHMINDETLKLFKRGAYIVNTARGKLADRDAIVRAIESGQLAGYAGDVWFPQPAPKDHPWRTMKWEGMTPHISGTSLSAQARYAAGTREILECFFEGRPIRDEYLIVQGGALAGTGAHSYSKGNATGGSEEAAKFKKAG
[3]; 30° C., NAD 5 mM, sodium formate varied, read-out: Km value for formate
  Km: 1600 µM
[3]; 30° C., sodium formate 500 mM, NAD varied, read-out: Km value for NAD
  Km: 48 µM
[3]; 30° C.
  Specific activity: 7.6 u/mg protein
[3]; 40° C.
  Specific activity: 13.3 μ/mg protein
[4]
  Conversion rate to ethyl 4-chloro-3-hydroxybutyrate: 100%
